{
  "source": "patent US20040194155A1",
  "about": "“HBV mutations associated with reduced susceptibility to adefovir” (priority 2002, published 2004)",
  "key": {"[1]": {"test_system": "rtN236T mutant HBV (patient-derived clones)", "assay": "Whole HBV genome cell culture assay (HepG2 transient transfection), rtN236T clones", "assay_type": "cell-based, hepatitis B virus", "details": "for IC50 Fold Change (rtN236T/Wild-type): patient-derived HBV strain, rtN236T vs wild-type (Table 7); for susceptibility of rtN236T mutant (in words): in vitro"}, "[2]": {"test_system": "wild-type HBV (patient-derived baseline clones)", "assay": "Whole HBV genome cell culture assay: patient-derived HBV clones transiently transfected into HepG2 cells, 7 days drug, Southern blot of intracellular replicating virus DNA", "assay_type": "cell-based, hepatitis B virus", "details": "adefovir, patient-derived HBV (0454-2506), reference"}, "[3]": {"test_system": "rtN236T + rtA181T double mutant HBV", "assay": "Whole HBV genome cell culture assay, rtA181T introduced by site-directed mutagenesis into rtN236T clones of patient 0454-2506", "assay_type": "cell-based, hepatitis B virus", "details": "adefovir, patient-derived HBV (0454-2506)", "text": "(§1) One patient (0454-2506) with the rtN236T mutation also developed a second conserved site mutation rtA181T at week 96. However, all week 96 isolates derived from the patient encoding both rtN236T and rtA181T were replication deficient in vitro; the reason for this is unclear. To assess the adefovir sensitivity of HBV containing both rtN236T and rtA181Tmutations, an artificial construct was obtained by modifying an existing patient-derived HBV clone. The rtA181T mutation was introduced by site-directed mutagenesis into replicating HBV clones from patient 0454-2506 that already encoded rtN236T. The resulting double mutants were replication competent and were used for adefovir susceptibility testing. […] The rtA181T mutation was also introduced into a standard HBV lab strain (genotyped, ayw) to assess the individual contribution of the rtA181T mutation."}, "[4]": {"test_system": "Lab HBV strain, rtA181T mutant", "assay": "In vitro adefovir susceptibility of HBV lab strain with introduced rtA181T", "assay_type": "cell-based, hepatitis B virus", "text": "as §1"}, "HBV": {"test_system": "HBV", "assay": "Phase 3 clinical study GS-98-438, HBeAg negative chronic hepatitis B patients", "assay_type": "in vivo, human", "description": "The median serum HBV DNA levels declined by 3.5 and 3.9 log10 copies/mL from baseline to week 48 in the ADV 10 mg dose groups in HBeAg positive (Study GS-98-437) and in HBeAg negative (Study GS-98-438) chronic hepatitis B patients, respectively.\nAdefovir resistance surveillance was performed in a blinded manner in HBeAg negative chronic hepatitis B patients treated for 96 weeks in a Phase 3 double-blind, randomized, placebo-controlled clinical study (GS-98-438) of adefovir dipivoxil 10 mg (ADV). The analysis included 79 patients who received ADV 10 mg daily for the first 48 weeks and were randomized to also receive ADV 10 mg during the second 48 weeks.\nThe reverse transcriptase (RT) domain of the HBV polymerase gene (rt1 to rt344) was sequenced for HBV DNA extracted from baseline and week 96 serum samples (or the last on-study sample) for the 79 patients treated continuously with ADV for 96 weeks if the samples had detectable serum HBV DNA (≧1000 copies/mL by Roche Amplicor™ PCR assay) at the time points tested.\nStudy GS-98-438 is a randomized, double-blind, placebo-controlled Phase 3 clinical study of the safety and efficacy of ADV for the treatment of patients with HBeAg negative/anti-HBe positive/HBV DNA positive chronic hepatitis B. A total of 184 patients received at least one dose of study medication during the first 48 weeks (n=61 and 123 for the placebo and ADV 10 mg groups, respectively). During the second 48 weeks, all placebo patients switched to ADV 10 mg daily while the ADV-treated patients were re-randomized to either continue ADV or receive placebo at a 2:1 ratio. Accordingly, all patients who received at least one dose of study drug during the second 48 weeks are classified into three groups: PLB-ADV (n=60), ADV-ADV (n=79), and ADV-PLB (n=40).\nA virology substudy of Study GS-98-438 included all patients in the ADV 10 mg-ADV 10 mg group (n=79). The RT domain of the HBV polymerase gene from banked serum samples from these patients was genotypically analyzed at baseline, and either at week 96, or upon early termination during the second 48 weeks.\nIf the week 96 serum HBV DNA value was not available for a patient, the closest serum HBV DNA value prior to week 96 was used. All week 96 and the last on-drug samples are referred to as week 96 samples hereafter. Note that Roche Molecular Systems raised the lower limit of quantification of the HBV DNA PCR assay from 400 copies/mL to 1,000 copies/mL after Gilead completed the week 48 analyses for study 438."}, "[5]": {"test_system": "rtK241E + rtK318Q mutant HBV (patient-derived clones)", "assay": "Whole HBV genome cell culture assay (HepG2 transient transfection), rtK241E + rtK318Q clones", "details": "in vitro, patient 0370-3503", "experimental": "All conserved site substitutions were evaluated for their effects on adefovir susceptibility using a novel approach to generate full-length patient-derived HBV clones. […] Full-length viral genomes were cloned into the lethal selection vector pCAP^s at a Mlu Nl site through blunt-end ligation (PCR Cloning Kit, Roche) and then subcloned into plasmid pHY106, a pBluescript KS (+)-derived plasmid containing a CMV promoter and the minimal 5′ and 3′ HBV sequence necessary (approximately 180 total bases) for viral replication after the insertion of a genome-length clinical HBV isolate. Drug susceptibility of patient-derived clones was analyzed by transient transfection into HepG2 cells.\nTo investigate if these conserved site mutations conferred resistance to adefovir, adefovir susceptibility of HBV isolates derived from the above five patients was evaluated using a whole HBV genome cell culture assay as described above."}},
  "note": "“Also recorded” adds a separate entry of the source.",
  "data": [
    {"smiles": "C[C@H](Cn1cnc2c(N)ncnc21)OCP(=O)(O)O", "note": "[Tenofovir, tenofovir]", "values": [
      {"measurement": "IC50 Fold Change (rtN236T/Wild-type)", "setting": "[1]", "result": 4.2, "unit": "fold"}
    ]},
    {"smiles": "C=C1[C@H](CO)[C@@H](O)C[C@@H]1n1cnc2c(=O)[nH]c(N)nc21", "note": "[Entecavir, entecavir]", "values": [
      {"measurement": "susceptibility of rtN236T mutant (in words)", "setting": "[1]", "result": "remained susceptible"},
      {"measurement": "IC50 Fold Change (rtN236T/Wild-type)", "setting": "[1]", "result": 0.67, "unit": "fold"}
    ]},
    {"smiles": "Cc1cn([C@@H]2C[C@@H](O)[C@H](CO)O2)c(=O)[nH]c1=O", "note": "[L-dT]", "values": [
      {"measurement": "susceptibility of rtN236T mutant (in words)", "setting": "[1]", "result": "remained susceptible"},
      {"measurement": "IC50 Fold Change (rtN236T/Wild-type)", "setting": "[1]", "result": 2.4, "unit": "fold"}
    ]},
    {"smiles": "Nc1ncnc2c1ncn2CCOCP(=O)(O)O", "note": "[Adefovir, adefovir]", "values": [
      {"measurement": "IC50 Fold Change from Wild-Type", "setting": "[2]", "result": 1, "unit": "fold"},
      {"measurement": "IC50 Fold Change (rtN236T/Wild-type)", "setting": "[1]", "result": 9.6, "unit": "fold"},
      {"measurement": "IC50 Fold Change from Wild-Type", "setting": "[3]", "result": 2.5, "unit": "fold"},
      {"measurement": "resistance conferred by rtA181T mutation (in words)", "setting": "[4]", "result": "did not confer resistance; also recorded: does not confer resistance"},
      {"measurement": "reduction in serum HBV DNA", "setting": "HBV; patient 0370-3503 (rtK241E + rtK318Q), week 96", "result": "> 5", "unit": "log10"},
      {"measurement": "serum HBV DNA", "setting": "HBV; patient 0370-3503, week 96", "result": 3.1, "unit": "log10 copies/mL"},
      {"measurement": "serum HBV DNA", "setting": "HBV; patient 0370-3503, week 156 (February of 2003)", "result": 3.6, "unit": "log10 copies/mL"},
      {"measurement": "susceptibility of rtK241E + rtK318Q double mutant (in words)", "setting": "[5]", "result": "not associated with resistance; also recorded: remained fully susceptible"}
    ]},
    {"smiles": "CC(C)(C)C(=O)OCOP(=O)(COCCn1cnc2c(N)ncnc21)OCOC(=O)C(C)(C)C", "note": "[ADV, adefovir dipivoxil]", "values": [
      {"measurement": "number of patients with HBV DNA < 1000 copies/mL at week 96", "setting": "HBV; of 79 patients on ADV 10 mg for 96 weeks, Roche Amplicor PCR", "result": 58}
    ]},
    {"smiles": "COc1ccc(Sc2nc(N)nc3c2ncn3CCOCP(=O)(OCC(F)(F)F)OCC(F)(F)F)cc1", "note": "[MCC-478]", "values": [
      {"measurement": "IC50 Fold Change (rtN236T/Wild-type)", "setting": "[1]", "result": 8.6, "unit": "fold"}
    ]}
  ]
}
